Laboratory results from US8404733B2, “Laser enhanced amino acid blend and use of same to regenerate active myocardial tissue” (priority 2010, dated 2013).

Tested on: murine macrophages
Test: TNF-alpha production (ELISA) by Echinacea activated murine macrophages
Assay type: cell-based
Conditions: 24 hours; amino acid samples 20 mg/ml together with Echinacea; LPS 1 ng/ml; Negative Control 215 +/- 13.7
Source text: The rationale for the use of this process of laser enhancement is the result of an in vitro study using a similar short wavelength laser treatment. In this study, murine macrophages that were activated with Echinacea to simulate an irritated immune system were then fed the above formula of amino acids in the untreated and laser treated conditions. […] The specific details of the in vitro study are as follows. 20 grams of the amino acid blend as detailed above was used for each of the control and treated amino acid samples. The Untreated Sample was not treated. The Treated Sample was exposed to laser radiation from a 458 nm pumped argon gas laser with a primary power of 16.5 mW adjusted through the optics to a power level of 5.1 mW The duration of treatment of the sample was 30 seconds. The following bioassays were performed. A standardized Echinacea sample alone or with 20 mg/ml of the Untreated or Treated Sample amino acids were incubated in tissue culture media of triplicate wells of murine macrophages. […] The results were as follows and are expressed as the mean TNF-alpha production plus or minus the statistical standard deviation (SD): Using a Student's 2-tailed t-test, the Echinacea Stimulated Sample was compared to the results of Echinacea plus the Untreated Amino Acid Sample or the Treated Amino Acid Sample.

## lipopolysaccharide [LPS]
  TNF-alpha +/- SD (mean TNF-alpha production): 2863 +/− 185.7
